Source: patent publication US20080261994A1, “CYCLOPROPANE COMPOUNDS AND PHARMACEUTICAL USE THEREOF” (Japan Tobacco Inc., priority 2003, published 2008)
Read-outs that look alike come from different tables or passages of the source.

Columns and labels:
Format in all cases: biochemical
[1] = molecular target: T1, Recombinant Human MMP-13 (Homo sapiens, UniProt P45452); test: MMP-13 inhibitory activity (MMP-13 specific fluorescent substrate with quencher)
T1 construct: purchased R&D systems 511-MM
Summary of the method: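 Recombinant human MMP-13 with test compound, reaction started with quenched fluorogenic peptide 7-MCA-Pro-CHA-Gly-NVal-His-Ala-DPA in Tris-HCl buffer, 1 h at 25 °C, stopped with acetic acid. Fluorescence at Ex 325/Em 405 nm; % inhibition versus enzyme-free and inhibitor-free wells, reported as IC50 (μM).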

[2] = molecular target: T2, aggrecanase-1 (Homo sapiens, UniProt O75173); test: Aggrecanase-1 inhibitory action (Particle Assay, GAG release from aggrecan-containing polyacrylamide particles)
T2 sequence (O75173 213-837): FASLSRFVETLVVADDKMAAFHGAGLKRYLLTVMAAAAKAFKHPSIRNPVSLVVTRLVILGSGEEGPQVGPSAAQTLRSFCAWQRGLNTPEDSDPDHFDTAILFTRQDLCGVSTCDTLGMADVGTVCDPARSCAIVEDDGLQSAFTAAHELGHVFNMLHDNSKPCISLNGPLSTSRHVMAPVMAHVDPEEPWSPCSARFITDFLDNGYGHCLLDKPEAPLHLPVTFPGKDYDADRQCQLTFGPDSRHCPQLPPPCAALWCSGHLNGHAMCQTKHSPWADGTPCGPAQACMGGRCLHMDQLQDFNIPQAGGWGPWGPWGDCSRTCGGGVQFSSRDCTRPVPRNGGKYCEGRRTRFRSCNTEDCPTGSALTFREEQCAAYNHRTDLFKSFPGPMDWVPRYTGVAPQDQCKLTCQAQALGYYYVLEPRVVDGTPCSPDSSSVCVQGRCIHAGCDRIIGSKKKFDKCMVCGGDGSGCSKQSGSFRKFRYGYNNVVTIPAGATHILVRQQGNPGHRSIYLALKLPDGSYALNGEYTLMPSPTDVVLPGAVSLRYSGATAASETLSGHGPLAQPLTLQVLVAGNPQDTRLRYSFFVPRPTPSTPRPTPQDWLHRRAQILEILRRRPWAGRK
Summary of the method: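 Enzyme and compound incubated with aggrecan-containing polyacrylamide particles in Tris-HCl buffer at 37° C for 15 h. Released GAG in supernatant measured with 1,9-dimethylmethylene blue at 595 nm against chondroitin sulfate standard; % inhibition from enzyme-free and inhibitor-free wells, reported as TC50 (μM).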

[3] = molecular target: T3, MMP-1 (Homo sapiens, UniProt P03956); test: MMP-1 inhibitory action (Type I collagen Activity Measurement kit, FITC-labeled collagen type I)
T3 sequence (P03956 100-469): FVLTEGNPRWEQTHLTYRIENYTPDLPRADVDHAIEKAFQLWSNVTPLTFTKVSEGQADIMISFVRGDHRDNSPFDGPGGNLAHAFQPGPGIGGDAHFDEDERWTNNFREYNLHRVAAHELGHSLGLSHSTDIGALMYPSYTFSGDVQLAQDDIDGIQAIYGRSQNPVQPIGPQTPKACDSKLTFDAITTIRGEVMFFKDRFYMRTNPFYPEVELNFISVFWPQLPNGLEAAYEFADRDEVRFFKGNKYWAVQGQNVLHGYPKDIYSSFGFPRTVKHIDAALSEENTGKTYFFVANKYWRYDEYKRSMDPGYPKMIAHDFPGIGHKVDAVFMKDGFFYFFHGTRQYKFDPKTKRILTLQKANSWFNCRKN

[4] = Recombinant Human MMP-13, fluorescent substrate, 25° C. for 1 h, read-out: IC50 MMP13 (Experimental Example 3)
[5] = aggrecanase-1 inhibitory action, read-out: IC50 AG1 (Experimental Example 1)
[6] = MMP-1 inhibitory action, FITC-labeled collagen type I, 37° C. for 3 hr, read-out: IC50 MMP1 (Experimental Example 2)
[7] = Experimental Example 3, read-out: IC50 MMP13
[8] = Experimental Example 1, read-out: IC50 AG1
[9] = Experimental Example 2, read-out: IC50 MMP1

Row | Structure (SMILES) | IC50 [1, 4] | IC50 [2, 5] | IC50 [3, 6] | IC50 [1, 7] | IC50 [2, 8] | IC50 [3, 9]
1 | O=C(O)C1(NS(=O)(=O)c2ccc(-c3ccc(Cl)cc3)s2)CC1c1ccccc1O (stereo not drawn) [Example 1-102] | < 1000 nM | < 100 nM | ≥ 1000 nM | – | – | –
2 | C[C@]1(c2ccccc2)C[C@@]1(NS(=O)(=O)c1ccc(-c2cccc(NS(C)(=O)=O)c2)s1)C(=O)O [Example 2-453] | – | – | – | < 1000 nM | ≥ 1000 nM | ≥ 10000 nM
3 | NC(=O)Cc1ccc([C@@H]2C[C@]2(NS(=O)(=O)c2ccc(-c3cc(C(F)(F)F)on3)s2)C(=O)O)cc1 [Example 2-292] | – | – | – | < 100 nM | < 100 nM | < 1000 nM
4 | O=C(NO)C1(NS(=O)(=O)c2ccc(-c3ccc(Cl)cc3)s2)C2CCc3ccccc3C21 (stereo not drawn) [Example 2-364] | – | – | – | < 100 nM | < 1000 nM | < 1000 nM
5 | CC(=O)c1cnn(-c2ccc(S(=O)(=O)N[C@@]3(C(=O)O)C(C)[C@@H]3c3ccccc3)s2)c1 (stereo partly drawn) [Example 2-546] | – | – | – | < 100 nM | < 100 nM | < 100 nM
6 | CC(=O)OCCCC1(c2ccccc2)CC1(NS(=O)(=O)c1ccc(-c2cc(C(F)(F)F)on2)s1)C(=O)O (stereo not drawn) [Example 2-264] | < 100 nM | < 100 nM | ≥ 1000 nM | – | – | –
7 | COCc1cc(-c2ccc(S(=O)(=O)N[C@@]3(C(=O)O)C(C)[C@@H]3c3ccccc3)s2)no1 (stereo partly drawn) [Example 2-404] | – | – | – | < 100 nM | < 100 nM | < 1000 nM
8 | CC1[C@H](c2ccccc2)[C@]1(NS(=O)(=O)c1ccc(-c2cc(C(F)F)no2)s1)C(=O)O (stereo partly drawn) [Example 2-354] | – | – | – | < 1000 nM | < 100 nM | ≥ 1000 nM
9 | O=C(NCC(F)(F)F)c1ccc(S(=O)(=O)NC2(C(=O)O)CC2c2ccccc2)s1 (stereo not drawn) [Example 2-106] | ≥ 10000 nM | ≥ 10000 nM | ≥ 10000 nM | – | – | –
10 | COCCN(C)C(=O)c1cccc(C2CC2(NS(=O)(=O)c2ccc(-c3ccc(Cl)cc3)s2)C(=O)O)c1 (stereo not drawn) [Example 2-69] | < 100 nM | < 100 nM | ≥ 1000 nM | – | – | –
11 | NCCc1ccc([C@H]2C[C@@]2(NS(=O)(=O)c2ccc(-c3cc(C(F)(F)F)on3)s2)C(N)=O)cc1 [Example 2-300] | – | – | – | < 100 nM | < 1000 nM | ≥ 1000 nM
12 | Nc1cccc(C2CC2(NS(=O)(=O)c2ccc(-c3cc(C(F)(F)F)on3)s2)C(=O)O)c1 (stereo not drawn) [Example 2-201] | < 100 nM | < 1000 nM | ≥ 10000 nM | – | – | –
13 | O=C(O)C1(NS(=O)(=O)c2ccc(-c3ccc(Cl)cc3)cc2)CC1c1cccc(NCc2cnc[nH]2)c1 (stereo not drawn) [Example 1-90] | < 100 nM | < 1000 nM | ≥ 1000 nM | – | – | –
14 | O=C(OCCCc1cccc(C2CC2(NS(=O)(=O)c2ccc(-c3cc(C(F)(F)F)on3)s2)C(=O)O)c1)N1CCOCC1 (stereo not drawn) [Example 2-239] | < 100 nM | < 100 nM | ≥ 1000 nM | – | – | –
15 | Cc1cc(N2CCN(S(=O)(=O)N[C@@]3(C(=O)O)C(C)[C@@H]3c3ccccc3)CC2)no1 (stereo partly drawn) [Example 2-475] | – | – | – | ≥ 1000 nM | ≥ 1000 nM | ≥ 10000 nM
16 | CC1[C@H](c2ccccc2)[C@]1(NS(=O)(=O)c1ccc(-c2cc(C(F)(F)F)no2)s1)C(=O)O (stereo partly drawn) [Example 2-338] | – | – | – | < 1000 nM | < 100 nM | ≥ 1000 nM

Row | Structure (SMILES) | IC50 [1, 4] | IC50 [2, 5] | IC50 [3, 6] | IC50 [1, 7] | IC50 [2, 8] | IC50 [3, 9]
17 | O=C(O)[C@]1(NS(=O)(=O)c2ccc3c(c2)Cc2cc(Br)ccc2-3)C[C@@H]1c1ccccc1 [Example 1-91] | < 100 nM | < 100 nM | ≥ 1000 nM | – | – | –
18 | CC1[C@H](c2ccccc2)[C@]1(NS(=O)(=O)c1ccc(-c2ccc(Cl)cc2)s1)C(=O)O (stereo partly drawn) [Example 2-262] | < 100 nM | < 100 nM | < 1000 nM | – | – | –
19 | CN(Cc1cccnc1)c1cccc(C2CC2(NS(=O)(=O)c2ccc(-c3ccc(Cl)cc3)s2)C(=O)O)c1 (stereo not drawn) [Example 2-37] | < 100 nM | < 100 nM | ≥ 10000 nM | – | – | –
20 | O=C(O)C1(NS(=O)(=O)c2ccc(-c3ccc(Cl)cc3)s2)C2CCOc3ccccc3C21 (stereo not drawn) [Example 2-369] | – | – | – | < 100 nM | < 100 nM | ≥ 1000 nM
21 | CC1[C@H](c2ccccc2)[C@]1(NS(=O)(=O)c1ccc(-c2nc3ccccc3s2)s1)C(=O)O (stereo partly drawn) [Example 2-591] | – | – | – | < 100 nM | ≥ 1000 nM | ≥ 1000 nM
22 | O=C(O)[C@]1(NS(=O)(=O)c2ccc(-c3ccc(Cl)cn3)s2)C[C@@H]1c1ccccc1 [Example 1-131] | < 100 nM | < 100 nM | ≥ 1000 nM | – | – | –
23 | CC(=O)c1ccc(-c2ccc(S(=O)(=O)N[C@@]3(C(=O)O)C[C@]3(C)c3ccccc3)s2)cc1 [Example 2-573] | – | – | – | < 100 nM | < 1000 nM | ≥ 1000 nM
24 | CC1C(c2ccccc2)C1(NS(=O)(=O)c1ccc(Cc2ccccc2)s1)C(=O)O (stereo not drawn) [Example 2-508] | – | – | – | ≥ 1000 nM | ≥ 1000 nM | ≥ 1000 nM
25 | O=C(O)C1(NS(=O)(=O)c2ccc(-c3ccc(Cl)cc3)s2)CC1c1cccc(NS(=O)(=O)N2CCOCC2)c1 (stereo not drawn) [Example 2-269] | – | – | – | < 100 nM | < 100 nM | ≥ 1000 nM
26 | CC1[C@H](c2ccccc2)[C@]1(NS(=O)(=O)N1CCN(c2ccc(Cl)cn2)CC1)C(=O)O (stereo partly drawn) [Example 2-457] | – | – | – | < 100 nM | < 100 nM | ≥ 1000 nM
27 | CN1CCN(C(=O)OCC2(c3ccccc3)CC2(NS(=O)(=O)c2ccc(-c3cc(C(F)(F)F)on3)s2)C(=O)O)CC1 (stereo not drawn) [Example 2-334] | – | – | – | < 1000 nM | < 1000 nM | ≥ 1000 nM
28 | CC1[C@H](c2ccccc2)[C@]1(NS(=O)(=O)c1ccc(-n2cc(C(F)(F)F)cn2)s1)C(=O)O (stereo partly drawn) [Example 2-577] | – | – | – | < 100 nM | < 100 nM | < 1000 nM
29 | O=C(O)[C@]1(NS(=O)(=O)c2ccc(-c3cc4ccccc4s3)s2)C[C@@H]1c1ccccc1 [Example 2-113] | < 100 nM | < 100 nM | < 1000 nM | – | – | –
30 | CN(C)C(=O)OCCC1(c2ccccc2)CC1(NS(=O)(=O)c1ccc(-c2ccc(Cl)cc2)s1)C(=O)O (stereo not drawn) [Example 2-303] | – | – | – | < 100 nM | < 100 nM | ≥ 1000 nM
31 | O=C(Nc1ccc(S(=O)(=O)N[C@@]2(C(=O)O)C[C@@H]2c2ccccc2)cc1)c1ccccc1 [Example 2-473] | – | – | – | ≥ 1000 nM | ≥ 1000 nM | ≥ 10000 nM
